System: acpP mRNA
Test: Northern blot of acpP transcript levels after PNA treatment
Assay type: cell-based, Salmonella enterica serovar Typhimurium
Conditions: 5 μM, 5, 10 or 15 min, 10^6 cfu/ml; two biological replicates
Experimental: For northern blotting, equal RNA amounts were used for gel electrophoresis (10 μg in Figure 4B; 100–150 ng in Figure 4E) and subsequent transfer to Hybond+ membranes (GE Healthcare Life Sciences). After crosslinking (0,12 J/cm^2), membranes were blocked using ROTI®Hybri-Quick (Roth) and incubated with RNA-specific digoxigenin (DIG; Roche)- or radioactively-labeled (5′ ^32P-labeling ([28])) oligonucleotides. In vitro transcription (MEGAscript T7 polymerase, Ambion), DIG-labeling of probes and northern blot detection was performed according to the manufacturer's instructions. Sequences of all the oligonucleotides (purchased from Eurofins Genomics or Sigma) employed for northern blot probe generation or RT-qPCR are listed in Supplementary Table S2. Signals were visualized on a phosphorimager (Typhoon FLA 7000, GE Healthcare) for radioactive probes, or using an ImageQuant (LAS 4000, GE Healthcare) for DIG-labeled probes.
Bacterial overnight cultures were diluted 1:100 in fresh MHB and grown to OD600 0.5. […]
Figure 4. […] In brief, 10^9 cfu were pelleted for the isolation of RNA, which was subsequently analyzed using (A) a denaturing polyacrylamide gel (1 μg/lane) and (B) northern blotting (10 μg/lane). […] (B) Transcript levels of two sRNAs, SroC and SdhX (SdhX1, SdhX2), and the loading control 5S were detected using sequence specific radioactive-labeled probes. […]

KFFKFFKFFK [KFF-acpP, KFF peptide conjugated to 10-mer antisense PNA against the translational start site of acpP]
acpP mRNA levels (northern blot): rapid decrease of acpP mRNA levels from 5 min post treatment onwards
